What is called melting point is the temperature, or range, at which the solid turns liquid.

Turning to `N#Cc1ccc2c(c1)[N+]([O-])=C(c1cccc(C3=[N+]([O-])c4cc(C#N)ccc4C3=O)c1)C2=O`, the melting point fell in the range of 270 to 320 °C. `CCCc1ccccc1O` returned a melting point of 7 °C.

Turning to `COc1cc(-c2ccc(N=C=O)c(OC)c2)ccc1N=C=O`, the melting point worked out at 114 °C. `CN(c1c(F)c(F)c(-c2c(F)c(F)c(F)c(F)c2F)c(F)c1F)[N+](=O)[O-]` came in with a melting point of 140 °C. The value for `O=C(O)CSc1ncccn1` was 200 to 203 °C.

As for `Nc1cccc(S(=O)(=O)O)c1`, the melting point stood at 300 °C.

In turn, `OCc1csc2ccc(Cl)cc12` had a melting point of 93 to 94 °C.

Take `O=S1(=O)CCOCC1`: the melting point was found to be 132 °C. `O=C(O)C(O)c1ccc(F)c(F)c1` (centres undefined) displayed a melting point of 94 °C. The value for `CC1(C)C2CCC1(CS(=O)(=O)Cl)C(=O)C2` (centres undefined) was 66 °C; that for `COc1ccc(C2=CCC3(C)C(CCC4C5CCC(O)C5(C)CCC43)C2)cc1` (centres undefined) was 163 to 169 °C; that for `N#Cc1ccc(C=Cc2ccc(C=Cc3ccc(C#N)cc3[N+](=O)[O-])cc2)c([N+](=O)[O-])c1` was 350 °C. With `Clc1ccc2ncccc2c1`, the melting point was determined as 43.8 °C. For `CC(C)CCCCCCCOC(=O)CCCCC(=O)OCCCCCCCC(C)C`, the melting point was 27.4 °C.

With `CCCCC(=O)NC`, the melting point was -26 °C.

As to `CCC#CCCCCCCCCCCCCCC`, the melting point worked out at 2 °C. The value for `O=Cc1ccnc(Cl)c1` was 47.5 °C; that for `CCOC(=O)c1c(C)oc(NC(=O)Nc2cccc(C(F)(F)F)c2)c1C(=O)OCC` was 153 to 155 °C. `OCCNC1CCCCC1` registered a melting point of 36 °C.

Molecule `Cc1c(C#N)c2ccccc2n1C` had a melting point of 105 °C. The value for `COc1cc(CCn2cccc2C(=O)O)cc(OC)c1OC` was 132 °C. With `O=C(C1=NOC2C(=O)N(c3ccccc3[N+](=O)[O-])C(=O)C12)c1ccc(Cl)cc1` (centres undefined), the melting point was found to be 173 °C. The value for `Cc1nnc2sc(SCC(=O)O)nn2c1=O` was 201 °C. Then `CC1(C)CC(NCCCCCCNC2CC(C)(C)NC(C)(C)C2)CC(C)(C)N1`, with 64 °C. In turn, `C=C(C)CN(CC)c1c([N+](=O)[O-])cc(C(F)(F)F)cc1[N+](=O)[O-]` showed a melting point of 55.5 °C. Turning to `CCCCCCCOC(=O)CCCC`, the melting point was -46.4 °C.

For `Cc1cc2ccccc2c(Br)c1C`, the melting point is 63 °C.

The molecule `C=CCC1(C(C)C)C(=O)NC(=O)N(C)C1=O` (centres undefined) had a melting point of 56.5 °C. Molecule `Cc1ccc2cc(N(C)C)ccc2n1` gave a melting point of 101 °C. As to `COc1ccc2oc(CCC(C)=O)c(-c3ccc(C)o3)c2c1`, the melting point was determined as 36 °C. Then `CC1=CC(=O)CC1`, with 3 to 5 °C. For the molecule `COc1ccc2[nH]cnc2c1`, the melting point is 122 °C. For the molecule `O=Cc1ccc2occc2c1`, the melting point was in the range of 37 to 38 °C.

Consider `COc1ccc2c(c1)CC2O` (centres undefined), for which the melting point is 39 to 41 °C. The value for `COc1cccc(O)c1C(C)=O` was 58 to 60 °C. On to `CC(=O)NCCc1ccccc1[N+](=O)[O-]`, for which the melting point was 94 °C. Turning to `C=COC(C)C`, the melting point is -140 °C. Then `Nc1cccnc1N1CCOCC1`, with 127 to 128 °C; and `C=C(C)CCCCC`, with -90 °C. Then `O=C1C=C(O)C(=O)C=C1O`, with 220 °C.

In turn, `O=Cc1cc(C#Cc2ccccc2)cs1` returned a melting point of 115 to 118 °C.

Turning to `O=C(O)C1CC=CCC1` (centres undefined), the melting point was determined as 17 °C. The molecule `Cc1c(O)c(C)c(CCl)c(C)c1CCl` yielded a melting point of 135 to 140 °C. `O=S(=O)(O)c1cccc2cccc(Cl)c12` yielded a melting point of 145 to 147 °C. In turn, `O=[N+]([O-])c1ccc2c(c1)c(CO)cn2Cc1ccccc1` registered a melting point of 104 to 106 °C. Then `O=C(O)c1ccccc1C(=O)Nc1cccc2ccccc12`, with 185 °C; and `O=C(Cl)c1csc(-c2ccccc2)n1`, with 100 °C; and `NC(CO)CO`, with 54 °C. Turning to `O=C(C[N+](=O)[O-])c1ccccc1`, the melting point fell in the range of 101 to 106 °C. Consider `Cc1cc(S(=O)(=O)Cc2ccc(N)cc2)c(C)cc1Cl`, for which the melting point lay within 156 to 158 °C.

Consider `CC(=O)N[C@H]1[C@H](OC(C)=O)O[C@H](COC(C)=O)[C@@H](OC(C)=O)[C@@H]1OC(C)=O`, for which the melting point was 186 to 189 °C.

Turning to `CCCCCCCCOC1OC(CO)C(O)C(O)C1O` (centres undefined), the melting point was found to be 105 °C. For the molecule `Cc1cc(O)c(C(C)(C)C)cc1C(C)CC(c1cc(C(C)(C)C)c(O)cc1C)c1cc(C(C)(C)C)c(O)cc1C` (centres undefined), the melting point amounted to 186 °C. As to `OCc1nccn1Cc1ccccc1`, the melting point lay in the range of 94 to 97 °C. Then `COc1cc2c(c(O)c1OC)C(C)NCC2` (centres undefined), with 160 °C; and `CCC1(c2ccc(N)cc2)CCC(=O)NC1=O` (centres undefined), with 150 °C.

Regarding `Cc1cc(C=O)ccc1O`, the melting point came out at 119 °C. The molecule `CC(=O)Nc1ccc(OC(=O)c2ccccc2OC(C)=O)cc1` registered a melting point of 175 °C. The value for `O=S(=O)(Cl)c1cc(S(=O)(=O)c2ccccc2)cs1` was 102 °C; that for `Cc1nccn1-c1ccccc1N` was 132 to 134 °C; that for `COC(=O)Nc1nc2cc(C(=O)c3ccc(F)cc3)ccc2[nH]1` was 260 °C. The value for `COc1cccc(C=Cc2cc(C=Cc3cccc(OC)c3O)c([N+](=O)[O-])cc2[N+](=O)[O-])c1O` was 254 °C; that for `O=C1C=CC2=CC(=O)C=CC(=C1)C2` was 122 °C; that for `O=[N+]([O-])c1cnc(Br)s1` was 88 °C. The molecule `O=NN(CC(c1ccccc1)c1ccccc1)CC(c1ccccc1)c1ccccc1` yielded a melting point of 179 °C. The value for `O=Cc1cc(F)ccc1O` was 84 °C; that for `NNC(=O)c1cc(Cl)cc(Cl)c1` was 206 °C. `c1ccc(C2OC2c2ccccc2)cc1` (centres undefined) registered a melting point of 67 to 70 °C. Take `O=C1OC(c2ccc(O)c3ccccc23)(c2ccc(O)c3ccccc23)c2ccccc21`: the melting point worked out at 254 °C. The value for `Cc1ccc(C)c(C(=O)CC(C)(C)C(=O)O)c1` was 118 to 119 °C; that for `Cc1cccc(O)c1[N+](=O)[O-]` was 37 °C; that for `Cc1ccc(C=O)c(Br)c1` was 35 °C. For the molecule `O=C(O)c1cccc(-n2cncn2)c1`, the melting point lay in the range of 262 to 268 °C. The value for `O=C(Cl)c1ccc2snnc2c1` was 93 to 96 °C; that for `COC(=O)C(C)(C)C1=CCC2(C)C(CCC3C4CCC(O)C4(C)CCC32)C1` (centres undefined) was 150 °C; that for `CCSC(SCC)C(O)C(O)C(O)C(O)CO` (centres undefined) was 140 to 142 °C. Then `CC(C)(c1ccccc1)c1ccccc1`, with 29 °C; and `Cc1nc(-c2ccc(C(=O)Cl)cc2)cs1`, with 120 to 122 °C; and `FC(F)(F)C(F)(F)N(C(F)(F)C(F)(F)F)C(F)(F)C(F)(F)F`, with -110 °C.

In turn, `C1CCN(C2CCNCC2)C1` registered a melting point of 52 to 57 °C. Turning to `O=Cc1cccc2cccnc12`, the melting point worked out at 93 °C.

In turn, `N#CCCP(CCC#N)c1ccccc1` gave a melting point of 73 °C.

For `OCc1ccc(OCc2ccccc2)cc1`, the melting point is 86 °C. As to `Cc1ccccc1CC(=O)O`, the melting point worked out at 88 °C. Then `CNC(=N[N+](=O)[O-])NCc1cnc(Cl)s1`, with 177 °C. The value for `Cc1c(COC(=O)C2C(C=C(Cl)C(F)(F)F)C2(C)C)cccc1-c1ccccc1` (centres undefined) was 79.6 °C; that for `Nc1ccc(C=Cc2ccccc2)c(N)c1` was 116 °C; that for `N#CC(=CN1CCOCC1)C(N)=O` was 173 to 177 °C. In turn, `CCCC(C)Cl` (centres undefined) had a melting point of -80 °C. The value for `COC1CCCCCCCCCCC1` was 8 °C; that for `Cn1ccc(-c2ccc(C(=O)Oc3c(F)c(F)c(F)c(F)c3F)cc2)n1` was 122 to 124 °C; that for `Cc1cccc(C)c1NC(=O)c1cnc(C(C)(C)C)cn1` was 85 °C.

`CC(=O)N=c1sc(S(N)(=O)=O)nn1C` showed a melting point of 214 °C.

`C=CCc1cc2c(c(OC)c1OC)OCO2` returned a melting point of 29.5 °C. Then `Brc1ccccc1COc1ccccc1`, with 41 to 42 °C; and `N#CC1=C(N)Oc2c(c(C(F)(F)F)nn2-c2ccccc2)C1c1ccccc1` (centres undefined), with 191 °C. The value for `Cc1ccc(S(=O)(=O)CCCl)cc1` was 77 to 78 °C; that for `OC[C@H]1CC[C@H](CO)CC1` was 61 to 66 °C; that for `CC(Oc1c(Cl)cccc1Cl)C1=NCCN1` (centres undefined) was 126 °C. Then `CN1C(=O)CC(c2ccccc2)C1=O` (centres undefined), with 72 °C; and `CCOC(=O)CNc1cc(NCC(=O)OCC)c([N+](=O)[O-])cc1[N+](=O)[O-]`, with 198 °C; and `CCOC(=O)CC(=O)C=P(c1ccccc1)(c1ccccc1)c1ccccc1`, with 101 to 106 °C.

The molecule `N#Cc1ccc(N2CCNCC2)cc1` gave a melting point of 82 to 84 °C. `CC(C)c1ccncc1` showed a melting point of -54.9 °C. Molecule `N#Cc1cccc2c1-c1ccccc1C2` had a melting point of 77 to 79 °C. Then `CCC(=N\NC(N)=O)/C(C)=N\NC(N)=O`, with 244 to 245 °C; and `O=C(NC(=O)c1c(F)cccc1F)Nc1cc(Cl)c(Oc2ncc(C(F)(F)F)cc2Cl)c(Cl)c1`, with 223 °C. For `Clc1ccc2c(c1)N=C(N1CCN(C3=Nc4cc(Cl)ccc4Nc4ccccc43)CC1)c1ccccc1N2`, the melting point lay within 333 to 335 °C. The value for `CCCCCCCCCCCCOc1ccc(C(=O)O)cc1` was 134 °C.

The values are drawn from a melting point compilation (Tetko et al.).
